From ChEMBL document CHEMBL1201862, “PubChem BioAssay data set” (2004)
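1) Cells in 96-well plates. 2) Compound, 48 h, 5 concentrations. 3) Linear interpolation between surrounding doses. 4) Unreached endpoint = highest concentration. GI50 is the concentration that inhibits growth by half.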 Activity calls are given as the source filed them. Rule as the data show it: active = GI50 up to about 1.1 µM and inactive = higher.

Key:
Experiment in all cases: inhibition of tumour cell growth, NCI panel, 48 h
MOLT-4 = test system: MOLT-4
UACC-62 = test system: UACC-62
UO-31 = test system: UO-31
SK-MEL-28 = test system: SK-MEL-28
OVCAR-5 = test system: OVCAR-5
RPMI-8226 = test system: RPMI-8226
NCI-H23 = test system: NCI-H23
RXF 393 = test system: RXF 393
SK-MEL-2 = test system: SK-MEL-2
ACHN = test system: ACHN
KM12 = test system: KM12
CCRF-CEM = test system: CCRF-CEM
NCI-H460 = test system: NCI-H460
OVCAR-8 = test system: OVCAR-8
SNB-75 = test system: SNB-75
TK-10 = test system: TK-10
Malme-3M = test system: Malme-3M
SW-620 = test system: SW-620
SN12C = test system: SN12C
HOP-62 = test system: HOP-62

Measured: GI50

CC1=CC(c2ccccc2)n2c(nc3cc4ccccc4cc32)N1 (stereo not drawn)
inactive: MOLT-4 > 100 µM | UACC-62 > 100 µM | UO-31 > 100 µM | SK-MEL-28 > 100 µM | OVCAR-5 > 100 µM | RPMI-8226 > 100 µM | NCI-H23 > 100 µM | RXF 393 > 100 µM | SK-MEL-2 > 100 µM | ACHN > 100 µM | KM12 > 100 µM | CCRF-CEM > 100 µM | NCI-H460 > 100 µM | OVCAR-8 > 100 µM | SNB-75 > 100 µM | TK-10 > 100 µM | Malme-3M > 100 µM | SW-620 > 100 µM

CCOc1ccc(NC2=NC(=O)C(CC(=O)Nc3ccccc3[N+](=O)[O-])S2)cc1 (stereo not drawn)
inactive: MOLT-4 > 100 µM | UACC-62 94 µM | UO-31 > 100 µM | SK-MEL-28 > 100 µM | OVCAR-5 > 100 µM | SN12C > 100 µM | RPMI-8226 > 100 µM | NCI-H23 > 100 µM | RXF 393 > 100 µM | SK-MEL-2 > 100 µM | ACHN > 100 µM | CCRF-CEM > 100 µM | NCI-H460 > 100 µM | OVCAR-8 > 100 µM | SNB-75 > 100 µM | TK-10 > 100 µM | Malme-3M > 100 µM | SW-620 > 100 µM

O=C1CN(c2ccc(Cl)cc2)C(=O)CN1CCN1CC(=O)N(c2ccc(Cl)cc2)CC1=O
inactive: MOLT-4 > 100 µM | UACC-62 > 100 µM | UO-31 > 100 µM | SK-MEL-28 > 100 µM | OVCAR-5 > 100 µM | SN12C > 100 µM | RPMI-8226 > 100 µM | NCI-H23 > 100 µM | RXF 393 > 100 µM | HOP-62 > 100 µM | ACHN > 100 µM | KM12 > 100 µM | CCRF-CEM > 100 µM | NCI-H460 > 100 µM | OVCAR-8 > 100 µM | SNB-75 > 100 µM | TK-10 > 100 µM | Malme-3M > 100 µM | SW-620 > 100 µM

S=C(N/N=C(\C(=N/NC(=S)N1CCCCC1)c1ccccn1)c1ccccn1)N1CCCCC1
inactive: MOLT-4 8.53 µM | UACC-62 26.5 µM | UO-31 19.2 µM | SK-MEL-28 21.1 µM | OVCAR-5 51.2 µM | RPMI-8226 67.9 µM | NCI-H23 44.8 µM | RXF 393 18 µM | HOP-62 21.3 µM | ACHN 6.84 µM | KM12 51.8 µM | CCRF-CEM 3.91 µM | NCI-H460 14 µM | OVCAR-8 27.9 µM | SNB-75 56.1 µM | TK-10 19.4 µM | Malme-3M 17.3 µM | SW-620 9.12 µM
